# Reference: PubChem BioAssay (NCI)
#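 Five concentrations, 48 hours, 96-well plates. GI50 marks 50% less growth. TGI: total growth inhibition.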
# Experiments:
# Experiment in all cases: NCI-60 cell line screen, 48 h
# A549 NSCLC = test system: A549 NSCLC
# A498 renal = test system: A498 renal
# CCRF-CEM leukemia = test system: CCRF-CEM leukemia
# SN12C renal = test system: SN12C renal
# MALME-3M melanoma = test system: MALME-3M melanoma
# SR leukemia = test system: SR leukemia
# RXF 393 renal = test system: RXF 393 renal
# HCT-116 colon = test system: HCT-116 colon
# M14 melanoma = test system: M14 melanoma
# HT29 colon = test system: HT29 colon
# SK-MEL-2 melanoma = test system: SK-MEL-2 melanoma
# ACHN renal = test system: ACHN renal
# OVCAR-4 ovarian = test system: OVCAR-4 ovarian
# SW-620 colon = test system: SW-620 colon
# KM12 colon = test system: KM12 colon
# PC-3 prostate = test system: PC-3 prostate
# SF-539 CNS = test system: SF-539 CNS
# NCI-H522 lung = test system: NCI-H522 lung
# NCI-H460 lung = test system: NCI-H460 lung
# K-562 leukemia = test system: K-562 leukemia
# NCI-H226 lung = test system: NCI-H226 lung
# MOLT-4 leukemia = test system: MOLT-4 leukemia
# COLO 205 colon = test system: COLO 205 colon
# OVCAR-5 ovarian = test system: OVCAR-5 ovarian
# NCI-H23 lung = test system: NCI-H23 lung
# UACC-62 melanoma = test system: UACC-62 melanoma
# CAKI-1 renal = test system: CAKI-1 renal
# HOP-92 NSCLC = test system: HOP-92 NSCLC
# UACC-257 melanoma = test system: UACC-257 melanoma
# U251 CNS = test system: U251 CNS
# SF-295 CNS = test system: SF-295 CNS
# RPMI-8226 leukemia = test system: RPMI-8226 leukemia
# SK-OV-3 ovarian = test system: SK-OV-3 ovarian
# LOX IMVI melanoma = test system: LOX IMVI melanoma
# HS 578T breast = test system: HS 578T breast
# BT-549 breast = test system: BT-549 breast
# HCT-15 colon = test system: HCT-15 colon
# HCC-2998 colon = test system: HCC-2998 colon
# SNB-75 CNS = test system: SNB-75 CNS
# HL-60(TB) leukemia = test system: HL-60(TB) leukemia
# MDA-MB-231 breast = test system: MDA-MB-231 breast
# SF-268 CNS = test system: SF-268 CNS
# UO-31 renal = test system: UO-31 renal
# SK-MEL-5 melanoma = test system: SK-MEL-5 melanoma
# EKVX NSCLC = test system: EKVX NSCLC
# IGROV1 ovarian = test system: IGROV1 ovarian
# 786-0 renal = test system: 786-0 renal
# MCF7 breast = test system: MCF7 breast
# SK-MEL-28 melanoma = test system: SK-MEL-28 melanoma
# DU-145 prostate = test system: DU-145 prostate
# HOP-62 NSCLC = test system: HOP-62 NSCLC
# OVCAR-8 ovarian = test system: OVCAR-8 ovarian
# SNB-19 CNS = test system: SNB-19 CNS
# TK-10 renal = test system: TK-10 renal
# MDA-MB-435 = test system: MDA-MB-435
# OVCAR-3 ovarian = test system: OVCAR-3 ovarian
smiles,measurement,setting,value
CCOC(=O)c1ccc(NC(=O)Nc2nccs2)cc1,GI50,A549 NSCLC,72.5 nM
same,GI50,A498 renal,79.5 nM
same,TGI,A498 renal,568 nM
same,GI50,CCRF-CEM leukemia,448 nM
same,TGI,CCRF-CEM leukemia,> 100 µM
same,GI50,SN12C renal,371 nM
same,TGI,SN12C renal,27.1 µM
same,GI50,MALME-3M melanoma,1240 nM
same,TGI,MALME-3M melanoma,31.5 µM
same,GI50,SR leukemia,30.2 nM
same,GI50,RXF 393 renal,43.4 nM
same,TGI,RXF 393 renal,> 100 µM
same,GI50,HCT-116 colon,60.5 nM
same,GI50,M14 melanoma,34.6 nM
same,TGI,M14 melanoma,> 100 µM
same,GI50,HT29 colon,33.6 nM
same,GI50,SK-MEL-2 melanoma,819 nM
same,TGI,SK-MEL-2 melanoma,46.8 µM
same,GI50,ACHN renal,297 nM
same,TGI,ACHN renal,> 100 µM
same,GI50,OVCAR-4 ovarian,63.1 nM
same,TGI,OVCAR-4 ovarian,> 66.3 µM
same,GI50,SW-620 colon,28.3 nM
same,TGI,SW-620 colon,35.6 µM
same,GI50,KM12 colon,110 nM
same,TGI,KM12 colon,1010 nM
same,GI50,PC-3 prostate,443 nM
same,TGI,PC-3 prostate,39.8 µM
same,GI50,SF-539 CNS,106 nM
same,TGI,SF-539 CNS,385 nM
same,GI50,NCI-H522 lung,72.4 nM
same,TGI,NCI-H522 lung,688 nM
same,GI50,NCI-H460 lung,37.5 nM
same,TGI,NCI-H460 lung,2060 nM
same,GI50,K-562 leukemia,31.4 nM
same,TGI,K-562 leukemia,30.1 µM
same,GI50,NCI-H226 lung,363 nM
same,GI50,MOLT-4 leukemia,379 nM
same,TGI,MOLT-4 leukemia,31.3 µM
same,GI50,COLO 205 colon,33.6 nM
same,TGI,COLO 205 colon,117 nM
same,GI50,OVCAR-5 ovarian,1100 nM
same,TGI,OVCAR-5 ovarian,> 100 µM
same,GI50,NCI-H23 lung,66.8 nM
same,TGI,NCI-H23 lung,36.6 µM
same,GI50,UACC-62 melanoma,44 nM
same,TGI,UACC-62 melanoma,20.4 µM
same,GI50,CAKI-1 renal,398 nM
same,TGI,CAKI-1 renal,44.8 µM
same,GI50,HOP-92 NSCLC,5.25 µM
same,TGI,HOP-92 NSCLC,40.4 µM
same,GI50,UACC-257 melanoma,11.1 µM
same,TGI,UACC-257 melanoma,24.1 µM
same,GI50,U251 CNS,47.8 nM
same,TGI,U251 CNS,25.1 µM
same,GI50,SF-295 CNS,627 nM
same,TGI,SF-295 CNS,15.5 µM
same,GI50,RPMI-8226 leukemia,698 nM
same,TGI,RPMI-8226 leukemia,> 39.5 µM
same,GI50,SK-OV-3 ovarian,44.5 nM
same,TGI,SK-OV-3 ovarian,9.76 µM
same,GI50,LOX IMVI melanoma,98.7 nM
same,TGI,LOX IMVI melanoma,50.1 µM
same,GI50,HS 578T breast,33 nM
same,TGI,HS 578T breast,33.2 µM
same,GI50,BT-549 breast,328 nM
same,TGI,BT-549 breast,2540 nM
same,GI50,HCT-15 colon,36.4 nM
same,TGI,HCT-15 colon,> 45.5 µM
same,GI50,HCC-2998 colon,204 nM
same,TGI,HCC-2998 colon,4.45 µM
same,GI50,SNB-75 CNS,1550 nM
same,TGI,SNB-75 CNS,> 48.9 µM
same,GI50,HL-60(TB) leukemia,459 nM
same,TGI,HL-60(TB) leukemia,7.76 µM
same,GI50,MDA-MB-231 breast,275 nM
same,TGI,MDA-MB-231 breast,2980 nM
same,GI50,SF-268 CNS,201 nM
same,TGI,SF-268 CNS,16.9 µM
same,GI50,UO-31 renal,490 nM
same,TGI,UO-31 renal,57.8 µM
same,GI50,SK-MEL-5 melanoma,28.5 nM
same,TGI,SK-MEL-5 melanoma,211 nM
same,GI50,EKVX NSCLC,162 nM
same,TGI,EKVX NSCLC,> 96.6 µM
same,GI50,IGROV1 ovarian,64 nM
same,TGI,IGROV1 ovarian,24 µM
same,GI50,786-0 renal,716 nM
same,TGI,786-0 renal,> 46.4 µM
same,GI50,MCF7 breast,30.9 nM
same,TGI,MCF7 breast,13.9 µM
same,GI50,SK-MEL-28 melanoma,71.2 nM
same,TGI,SK-MEL-28 melanoma,25.8 µM
same,GI50,DU-145 prostate,107 nM
same,TGI,DU-145 prostate,690 nM
same,GI50,HOP-62 NSCLC,2510 nM
same,TGI,HOP-62 NSCLC,> 45.1 µM
same,GI50,OVCAR-8 ovarian,53.2 nM
same,TGI,OVCAR-8 ovarian,3.17 µM
same,GI50,SNB-19 CNS,128 nM
same,TGI,SNB-19 CNS,42.8 µM
same,GI50,TK-10 renal,38.1 nM
same,TGI,TK-10 renal,669 nM
N#Cc1nc(-c2cccnc2)oc1N,TGI,A498 renal,> 100000 nM
same,TGI,CCRF-CEM leukemia,> 100 µM
same,TGI,SN12C renal,> 100 µM
same,TGI,MALME-3M melanoma,> 100 µM
same,TGI,SR leukemia,> 100 µM
same,TGI,RXF 393 renal,> 100 µM
same,TGI,HCT-116 colon,> 100 µM
same,TGI,HT29 colon,> 100 µM
same,TGI,SK-MEL-2 melanoma,> 100 µM
same,TGI,ACHN renal,> 100 µM
same,TGI,OVCAR-4 ovarian,> 100 µM
same,TGI,SW-620 colon,> 100 µM
same,TGI,MDA-MB-435,> 100 µM
same,TGI,KM12 colon,> 100000 nM
same,TGI,PC-3 prostate,> 100 µM
same,TGI,NCI-H522 lung,> 100000 nM
same,TGI,NCI-H460 lung,> 100000 nM
same,TGI,K-562 leukemia,> 100 µM
same,TGI,NCI-H226 lung,> 100 µM
same,TGI,MOLT-4 leukemia,> 100 µM
same,TGI,COLO 205 colon,> 100000 nM
same,TGI,OVCAR-5 ovarian,> 100 µM
same,TGI,UACC-62 melanoma,> 100 µM
same,TGI,CAKI-1 renal,> 100 µM
same,TGI,HOP-92 NSCLC,> 100 µM
same,TGI,UACC-257 melanoma,> 100 µM
same,TGI,U251 CNS,> 100 µM
same,TGI,RPMI-8226 leukemia,> 100 µM
same,TGI,SK-OV-3 ovarian,> 100 µM
same,TGI,LOX IMVI melanoma,> 100 µM
same,TGI,HS 578T breast,> 100 µM
same,TGI,HCT-15 colon,> 100 µM
same,TGI,HCC-2998 colon,> 100 µM
same,TGI,HL-60(TB) leukemia,> 100 µM
same,TGI,MDA-MB-231 breast,> 100000 nM
same,TGI,SF-268 CNS,> 100 µM
same,TGI,UO-31 renal,> 100 µM
same,TGI,SK-MEL-5 melanoma,> 100000 nM
same,TGI,EKVX NSCLC,> 100 µM
same,TGI,IGROV1 ovarian,> 100 µM
same,TGI,786-0 renal,> 100 µM
same,TGI,SK-MEL-28 melanoma,> 100 µM
same,TGI,DU-145 prostate,> 100000 nM
same,TGI,HOP-62 NSCLC,> 100 µM
same,TGI,SNB-19 CNS,> 100 µM
same,TGI,OVCAR-3 ovarian,> 100 µM
same,TGI,TK-10 renal,> 100000 nM
